Source: ChEMBL document CHEMBL1153866, “Design, synthesis and evaluation of galanthamine derivatives as acetylcholinesterase inhibitors” (Eur J Med Chem, 2009)

How the values were obtained:
[1] = molecular target: T1, Acetylcholinesterase (Rattus norvegicus, UniProt P37136); experiment: Inhibition of AChE from rat cortex homogenate by Ellmans method
T1 sequence (P37136 whole entry): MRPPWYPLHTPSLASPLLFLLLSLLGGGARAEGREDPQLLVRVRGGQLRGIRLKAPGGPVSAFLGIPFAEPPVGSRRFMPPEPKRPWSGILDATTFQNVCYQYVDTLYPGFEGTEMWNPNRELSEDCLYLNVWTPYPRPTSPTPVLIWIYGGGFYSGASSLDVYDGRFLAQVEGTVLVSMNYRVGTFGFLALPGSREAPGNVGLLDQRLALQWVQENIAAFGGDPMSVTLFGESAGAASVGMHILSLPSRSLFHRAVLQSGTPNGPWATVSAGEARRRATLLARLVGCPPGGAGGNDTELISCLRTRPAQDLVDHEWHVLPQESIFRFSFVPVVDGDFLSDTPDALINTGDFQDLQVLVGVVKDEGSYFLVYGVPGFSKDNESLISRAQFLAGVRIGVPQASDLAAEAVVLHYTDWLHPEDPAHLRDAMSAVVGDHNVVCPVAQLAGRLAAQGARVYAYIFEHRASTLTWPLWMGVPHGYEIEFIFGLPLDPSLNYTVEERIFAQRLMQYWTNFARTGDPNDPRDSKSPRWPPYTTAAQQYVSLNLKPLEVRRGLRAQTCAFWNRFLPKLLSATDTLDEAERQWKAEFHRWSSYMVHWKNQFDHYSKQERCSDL

[2] = molecular target: Butyrylcholinesterase (Rattus norvegicus, UniProt Q9JKC1); experiment: Inhibition of BChE from rat serum by Ellmans method; type: cell-free
Sequence of Butyrylcholinesterase (Q9JKC1 whole entry): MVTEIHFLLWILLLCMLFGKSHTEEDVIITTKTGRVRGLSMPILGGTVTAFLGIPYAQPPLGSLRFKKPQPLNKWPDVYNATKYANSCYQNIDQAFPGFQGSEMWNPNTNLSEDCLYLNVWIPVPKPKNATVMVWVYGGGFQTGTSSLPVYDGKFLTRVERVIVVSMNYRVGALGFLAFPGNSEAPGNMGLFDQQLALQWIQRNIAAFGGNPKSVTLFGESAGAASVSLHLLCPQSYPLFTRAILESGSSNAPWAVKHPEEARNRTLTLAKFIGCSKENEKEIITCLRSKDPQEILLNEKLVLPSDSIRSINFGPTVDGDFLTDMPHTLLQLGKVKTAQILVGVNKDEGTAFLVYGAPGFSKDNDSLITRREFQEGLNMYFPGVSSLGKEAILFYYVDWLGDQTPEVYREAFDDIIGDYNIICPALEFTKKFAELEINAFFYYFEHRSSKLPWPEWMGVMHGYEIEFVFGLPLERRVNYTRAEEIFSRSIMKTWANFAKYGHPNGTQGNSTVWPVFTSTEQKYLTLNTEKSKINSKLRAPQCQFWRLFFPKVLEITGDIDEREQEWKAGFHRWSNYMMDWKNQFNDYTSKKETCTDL

Compound | IC50 [1] | IC50 [2]
COc1ccc2c3c1O[C@H]1C[C@@H](O)C=C[C@@]31CCN(CCCCCCOc1cccc(C(C)N3CCOCC3)c1)C2 (some centres not stated) | 0.154 µM | 5.8 µM
COc1ccc2c3c1O[C@H]1C[C@@H](O)C=C[C@@]31CCN(CCCCCCCCCOc1ccc(CN3CCCCC3)cc1)C2 | 0.0881 µM | 64 µM
COc1ccc2c3c1O[C@H]1C[C@@H](O)C=C[C@@]31CCN(CCCCCCCCCCCCOc1ccc(CN3CCCCC3)cc1)C2 | 0.0581 µM | 1.2 µM
COc1ccc2c3c1O[C@H]1C[C@@H](O)C=C[C@@]31CCN(CCCCCCOc1ccc(CN3CCCCC3)cc1)C2 | 0.00562 µM | 33 µM
COc1ccc2c3c1O[C@H]1C[C@@H](O)C=C[C@@]31CCN(CCCCOc1cccc(C(C)N3CCOCC3)c1)C2 (some centres not stated) | 0.0941 µM | 7.1 µM
COc1ccc2c3c1O[C@H]1C[C@@H](O)C=C[C@@]31CCN(CCCCOc1ccc(C(=O)N3CCCC3)cc1)C2 | 0.0538 µM | 5.6 µM
COc1ccc2c3c1O[C@H]1C[C@@H](O)C=C[C@@]31CCN(CCCCOC1CCN(Cc3ccccc3)CC1)C2 | 0.306 µM | 4.3 µM
COc1ccc2c3c1O[C@H]1C[C@@H](O)C=C[C@@]31CCN(CCCCCOc1ccc(CN3CCCCC3)cc1)C2 | – | 29 µM
COc1ccc2c3c1O[C@H]1C[C@@H](O)C=C[C@@]31CCN(CCCCOc1ccc(CN3CCCCC3)cc1)C2 | 0.0124 µM | 28 µM
CCN(CC)Cc1ccc(OCCCCCCN2CC[C@@]34C=C[C@H](O)C[C@@H]3Oc3c(OC)ccc(c34)C2)cc1 | 0.00886 µM | 41 µM
COc1ccc2c3c1O[C@H]1C[C@@H](O)C=C[C@@]31CCN(CCCCCCCCOc1ccc(CN3CCCCC3)cc1)C2 | 0.0347 µM | 53 µM
COc1ccc2c3c1O[C@H]1C[C@@H](O)C=C[C@@]31CCN(CCCOc1ccc(CN3CCCCC3)cc1)C2 | 0.018 µM | 24 µM
COc1ccc2c3c1O[C@H]1C[C@@H](O)C=C[C@@]31CCN(CCCCCCCCCCOc1ccc(CN3CCCCC3)cc1)C2 | 0.0612 µM | 93 µM
COc1ccc2c3c1O[C@H]1C[C@@H](O)C=C[C@@]31CCN(CCCCCCOc1ccc(C(=O)N3CCCC3)cc1)C2 | 0.122 µM | 9.4 µM
COc1ccc2c3c1O[C@H]1C[C@@H](O)C=C[C@@]31CCN(CCCCCCOC1CCN(Cc3ccccc3)CC1)C2 | 0.222 µM | 5.5 µM
COc1ccc2c3c1O[C@H]1C[C@@H](O)C=C[C@@]31CCN(CCCCCCOc1ccc(CN3CCOCC3)cc1)C2 | 0.113 µM | 3.9 µM
CCN(CC)Cc1ccc(OCCCCN2CC[C@@]34C=C[C@H](O)C[C@@H]3Oc3c(OC)ccc(c34)C2)cc1 | 0.0146 µM | 34 µM
COc1ccc2c3c1O[C@H]1C[C@@H](O)C=C[C@@]31CCN(CCCCOc1ccc(CN3CCOCC3)cc1)C2 | 0.0991 µM | 3.3 µM
COc1ccc2c3c1O[C@H]1C[C@@H](O)C=C[C@@]31CCN(CCOc1ccc(CN3CCCCC3)cc1)C2 | 0.0245 µM | 21 µM
